The values that follow are results of earlier work, collected in patent US7326706B2, “Pyrazine modulators of cannabinoid receptors” (Bristol-Myers Squibb Company, priority 2003, dated 2008).

Each structure is given as a SMILES string.

The conditions of data set [1]: chronic administration for two weeks.
The conditions of data set [2]: 16 week trial period.

With `Cc1c(C(=O)NN2CCCCC2)nn(-c2ccc(Cl)cc2Cl)c1-c1ccc(I)cc1` [AM-251], the body weight entry in data set [1] is “substantial body weight reduction”. Take `Cc1c(C(=O)NN2CCCCC2)nn(-c2ccc(Cl)cc2Cl)c1-c1ccc(Cl)cc1` [SR-141716]: the “body weight in human subjects” value in data set [2] is on record as “dose-dependently reduced body weight”.
